# Assay results from patent publication US20090239953A1, “USE OF AN ANTI-CANCER COMPOUND” (priority 2006, published 2009).
# pIC50: −log10 of the molar value. Where two headings read alike, the source gives them in different places.
# Experiments:
# HeLa cancer cells [1] = assay: Morphological study under normal inverted microscope, HeLa; format: cell-based, human; conditions: treated at IC50 value, 24, 48 and 72 hours
# Procedure: (§1) Treated cancer cells of HeLa and Caov-3 in 96-well plates were observed under normal inverted microscope following 24, 48 and 72 hours of incubation. Apoptotic features of treated cells were examined and compared concurrently to untreated cells. The cells were observed under inverted microscope at magnification 20×10.
# Caov-3 cancer cells = assay: Morphological study under normal inverted microscope, Caov-3; format: cell-based, human; conditions: Caov-3, treated at IC50 value, 24, 48 and 72 hours
# Procedure: as §1
# HeLa cancer cells [2] = assay: Confocal microscopy with AO/PI stain, HeLa; format: cell-based, human; conditions: 48 hours, laser scanning confocal microscopy
# Procedure: The plates were removed from the incubator after 24 and 48 hours of incubation period. The medium containing cells was transferred into labeled Eppendorf tubes (of each treated samples) placed in ice. The remaining cells in the wells were trypsinised until all cells were detached from the surfaces of each well. The medium containing cells in the Eppendorf tube was then transferred into the well of the tissue culture plate (of similar sample) to neutralise the trypsin. The medium in the wells was later transferred back into the Eppendorf tube (of similar sample) and centrifuged at 3000 rpm for 5 minutes, 4° C. Supernatant was discarded and 1 mL of 70% of cold alcohol was added. The pellet was re-suspended and placed in ice for 15 minutes for fixation. The samples were then centrifuged again at 3000 rpm for 5 minutes, 4° C. The supernatants containing the alcohol were discarded. The pellet was then re-suspended in 1 mL of phosphate buffer saline (PBS) and placed in ice for 10 minutes. The samples were centrifuged again, re-suspended in 1 mL of PBS and placed in ice for 10 minutes. This procedure was repeated again before discarding the supernatant.
# The pellet containing cells was re-suspended with 15 μl of 10 μg/mL AO/PI mixture. Approximately 10 μl of the cell suspension was placed on a glass slide, and anti-fading agents were added onto the cells. […]
# [3] = tested on: ovarian carcinoma cells (Caov-3 cells); assay: TUNEL assay apoptosis, Caov-3; format: cell-based, human; conditions: Caov-3, IC50 values, 24 and 48 hours, P<0.05 or P<0.01 vs control
# Source text: Apoptotic cells were quantified manually after TUNEL Assay. Data shown are mean±SD from duplicate samples. A single dagger denotes a P of <0.05 when compared with control; a double dagger denotes a P of <0.01 when compared with control as performed by One-Way ANOVA;
# [4] = tested on: cervical cancer cells (HeLa cells); assay: TUNEL assay apoptosis, HeLa; format: cell-based, human; conditions: IC50 values, 24 and 48 hours, P<0.01 vs control
# Source text: Apoptosis was quantified manually after TUNEL Assay. Data shown are mean±SD from duplicate samples. A double dagger denotes a P of <0.01 when compared with control as performed by One-Way ANOVA;
# [5] = tested on: induced cervical cancer in female balb/c mice; assay: DES-induced cervical cancer in female balb/c mice, cervical histology (H&E); format: in vivo; conditions: intra peritoneal, 4 dosages on alternate days, normal saline group CIN III
# Procedure: 1 male mouse was cohabitate with 3 female mice for 48 hours prior to experiment to stimulate the ovulation of the female mice. After 48 hours, 1 male mouse was cohabitate with 1 female mouse. The next morning, the female mice were checked for a vaginal plug. The detection of vaginal plug at the vagina of the female mice were considered as the first day of pregnancy and gestation day (G=0). Once the female mouse was pregnant the corresponding male mouse was separated from the cage. Only one pregnant female mouse was placed in each cage to reduce the stress among the mice and also to reduce the chances of cannibalization of offspring by the mothers. The pregnant mice were given subcutaneous injection of 67 μg/kg body weight diethylstilbestrol (DES) dissolved in sesame oil (refer to appendix for DES preparation) from gestation day (13 to 18). Since the reproductive tract is developing during this time, so giving the DES injection too early may cause stillbirth. The mice gave birth approximately at gestation day (19 to 22). The offspring were weaned at 22 days of age. 1 female offspring was subjected for the confirmation of cervical dysplasia at 41 days of age. The other offspring were subjected for the treatment with cisplatin, zerumbone and normal saline.
# All female offspring exposed to DES in uteri were pooled together and were divided into 4 groups where each group consists of 3 mice. […]
# serum IL-6 = assay: Serum IL-6 ELISA in mice with induced cervical cancer; format: in vivo; conditions: for Serum IL-6 levels vs normal saline treated mice: mice with induced cervical cancer, P<0.01 One-Way ANOVA
# Procedure: All female offspring exposed to DES in uteri were pooled together and were divided into 4 groups where each group consists of 3 mice. The 5th group consists of 3 mice which was non-exposed to DES. The mice were given treatment starting from 46 days of age to 52 days of age. The treatment was given every alternate day (day 46, 48, 50, 52) which consist of 4 dosages. The treatment was given through intra peritoneal injection. The group 1 mice were treated with 0.9% of Normal Saline and this group acts as a positive control group. The group 2 mice were given 8 mg/kg of Zerumbone while the group 3 mice were given 16 mg/kg of Zerumbone. […] Finally no treatment was given to the mice in group 5 as they act as a negative control (normal mice) for the studies. Following treatment, all the mice were sacrificed at 54 days of age. The blood sample was collected through heart punctured method into a plain tube and was centrifuged at 3000 rpm for 15 minutes. The supernatant (serum) was collected into an eppendorf tube and was immediately stored in ice (0° C.—temporary storage). Once serum from all the samples was collected, the serum was stored at −20° C. Then the mice were dissected. The reproductive organ of the mice were collected and washed with 0.9% normal saline. The washed organ was soaked in 10% formalin and stored at room temperature.
# The IL-6 serum levels in normal mice were used as negative control.
# [6] = tested on: human cervical cancer cells, HeLa; assay: Micro Tetrazolium (MTT) cytotoxicity assay on HeLa
# Procedure: HeLa and Caov-3 cell lines were maintained in RPMI 1640 and DMEM high glucose respectively, supplemented with 10% FCS, 1% penicillin and 1% streptomycin. Cells were allowed to proliferate as monolayer cultures in 25 cm^2 and 75 cm^2 tissues culture flasks, in a humidified atmosphere containing 5% CO2 at 37° C.
# A haemacytometer was used to determine the concentration of cells in the flask. Confluent cells were trypsinised in order to detach cells from surface of the flask. 10 mL of fresh medium was added into the flask and the cells were suspended thoroughly. 10 μl of medium from the flask was then transferred into a haemacytometer with cover slip. The counting was done under an inverted microscope and facilitated by manual counter usage. The cell density (for an example 1×10^5 cells/mL) was calculated. Using a multi-channel pipette, 100 μl of cell culture solution was transferred into each well of a 96-well microtiter plate. For a 6 well microtiter plate, 2 ml of the cell culture solution was pipetted instead. The plate was incubated overnight at 37° C. in 5% CO2.
# The concentrations of zerumbone in each experiment varied according to the optimization of the experiment conducted. The controls or untreated cells received only medium without any treatment of either compounds. Treated cells were then incubated at 37° C. in 5% CO2.
# This assay is based on the metabolic reduction of soluble MTT by mitochondrial enzyme activity of viable cancer cells, into an insoluble coloured formazan product, which can be measured spectrophotometrically after dissolution in dimethyl sulfoxide (DMSO) (Carmichale et al., 1987). The MTT assay was conducted according to the methods of Kumi-Diaka et at (1998) with minor modifications. The concentration of MTT solution used was 5 mg/mL. The MTT solution was prepared by dissolving 250 mg of MTT powder in 50 mL of phosphate buffer saline (PBS). A 0.2 micron syringe filter was used to filter the dissolved MTT. The filtered MTT solution was transferred into a sterile 50 mL centrifuge tube and covered with aluminum foil. This solution was stored in 4° C. and is ready to be used. The MTT assay was carried out as follows:
# 96-well microtiter plates containing cell culture solution were removed from the incubator after 72 hours incubation. 20 μl of 5 mg/mL MTT solution was added into each well including control wells. The plates were then wrapped with aluminium foil and incubated further for 4 hours at 37° C. in 5% CO2. After incubation, excess MTT reagent was aspirated and 100 μl of DMSO was added to dissolve the remaining purple colour formazan crystals. The plates were gently mixed on a plate shaker for approximately 4 minutes. The absorbance of the formazan solution was determined at 450 nm using a microplate reader.
# HeLa cells = assay: Cell cycle study by flow cytometry, HeLa; format: cell-based, human; conditions: 24 hours, zerumbone 0 to 45 μM
# Procedure: Cells were plated in 25 cm^2 tissue culture flasks at concentrations of 0.5×10^5 cells/mL. After an overnight incubation, the cells were cultured in the presence of zerumbone at concentrations as indicated above for 24 hours. Cells were harvested using trypsin-EDTA before centrifuging at 3000 rpm for 5 minutes. The cells pellet was then re-suspended in 2 mL of phosphate buffer saline (PBS). The re-suspended cells were centrifuged at 3000 rpm for 5 minutes and the resulting cells pellet was re-suspended again in 1 mL of cold PBS. The cells were fixed by the addition of 4 mL of cold absolute ethanol (kept in −20° C. prior to use). The fixed cells were stored in −20° C. overnight before resuming the staining procedure.
# Coa3 cancer cells = assay: Cell cycle study by flow cytometry, Caov-3; format: cell-based, human; conditions: Coa3 (Caov-3) cancer cells
Compound,Morphological changes / cell growth vs untreated control (HeLa cancer cells [1]),Morphological changes / cell growth vs untreated control (Caov-3 cancer cells),Morphological changes after AO/PI staining (HeLa cancer cells [2]),"Apoptosis, apoptotic cells quantified after TUNEL Assay [3]",Apoptosis quantified after TUNEL Assay [4],Cervical tissue dysplasia grade (CIN) ([5]; 10 mg/kg cisplatin),Serum IL-6 levels vs normal mice (negative control) (serum IL-6; 10 mg/kg cisplatin),Serum IL-6 levels vs normal saline treated mice (serum IL-6),"IC50 value, growth proliferation of HeLa ([6]; MTT, 72-hours post-treatment) [µg/mL]","pIC50 ([6]; read-out: IC50 value (±S.E.M), growth proliferation of HeLa, MTT, 72-hours post-treatment)","Cell cycle progression (G2/M, G1, S phase) (HeLa cells)","Cell cycle progression (G2/M, G1, S phase) (Coa3 cancer cells)",Cervical tissue dysplasia grade (CIN) ([5]; 16 mg/kg zerumbone),Serum IL-6 levels vs normal mice (negative control) (serum IL-6; 16 mg/kg zerumbone),"pIC50 ([6]; Homo sapiens, 72 h, read-out: IC50 value (±S.E.M), growth proliferation of HeLa)","IC50 ([6]; Homo sapiens, 72 h, read-out: IC50 value, growth proliferation of HeLa) [µg/mL]"
"N.N.[Cl][Pt][Cl] [cisplatin, reference compound]",Prominent growth retardation,Prominent growth retardation,"blebbing of the cell membrane, nuclear condensation with margination and nuclear damage",induced apoptosis,induced apoptosis,mild dysplastic changes (CIN I),almost near to the serum level of normal mice,lower,1.6,5.12,,,,,,
C/C1=C\CC(C)(C)/C=C/C(=O)/C(C)=C/CC1 [zerumbone],Prominent growth retardation,Prominent growth retardation,"blebbing of the cell membrane, nuclear condensation with margination and nuclear damage",induced apoptosis,induced apoptosis,,,lower,,,increase in the number of HeLa cancer cells and Coa3 cancer cells in the G2/M phase and a decrease in the G1 phase and S phase,increase in the number of HeLa cancer cells and Coa3 cancer cells in the G2/M phase and a decrease in the G1 phase and S phase,mild dysplastic changes (CIN I),almost near to the serum level of normal mice,4.95,2.5
